Reference: US20250145665A1, “MACROCYCLIC PEPTIDES USEFUL AS MODULATORS OF TNF ALPHA” (Bristol-Myers Squibb Company, priority 2023, published 2025)
Starred links: 1 amine or outer side, 2 acyl side, 3 side chain; linkers in the order of their positions; H or OH if unused. Positions of bridges follow the written chain, without caps; N, C: chain ends. Non-standard residues stand in square brackets, D forms with d. Residues, ends and D or L forms follow the SMILES beside them. Bip(4'-COOH) = N[C@@H](Cc1ccc(-c2ccc(C(=O)O)cc2)cc1)C(=O)O; Bip(4'-NHAc) = CC(=O)Nc1ccc(-c2ccc(C[C@H](N)C(=O)O)cc2)cc1; Phe(3-CH2NH2) = O=C([C@H](Cc1cccc(CN[*:3])c1)N[*:1])[*:2]; Ala(morpholin-4-yl) = N[C@@H](CN1CCOCC1)C(=O)O; Phe(3-CONH2) = NC(=O)c1cccc(C[C@H](N)C(=O)O)c1; Bip = N[C@@H](Cc1ccc(-c2ccccc2)cc1)C(=O)O; Ala(2-furyl) = N[C@@H](Cc1ccco1)C(=O)O; Abu(3S-NH2) = C[C@H](N)[C@H](N)C(=O)O; Phe(2-Me) = Cc1ccccc1C[C@H](N)C(=O)O; 2Pal = N[C@@H](Cc1ccccn1)C(=O)O; 2Thi = N[C@@H](Cc1cccs1)C(=O)O; Cha = N[C@@H](CC1CCCCC1)C(=O)O; Chg = N[C@H](C(=O)O)C1CCCCC1; Dab = NCC[C@H](N)C(=O)O; Sar = CNCC(=O)O

Target: TNFα (Homo sapiens, UniProt P01375)
Sequence (P01375 77-233 limits assumed): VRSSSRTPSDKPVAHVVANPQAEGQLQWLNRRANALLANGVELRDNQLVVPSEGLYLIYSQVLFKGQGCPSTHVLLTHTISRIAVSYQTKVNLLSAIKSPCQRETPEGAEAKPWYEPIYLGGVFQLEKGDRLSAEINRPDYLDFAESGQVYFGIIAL
Test: TNF-Induced HEK-Blue Assay
Type: cell-based
Details: HEK-Blue-CD40L cells, NF-kB-driven secreted alkaline phosphatase reporter; TNFα 0.5 ng/ml; 18 h; read-out: TNF induced HEK-Blue assay IC50 value

## CC(=O)Nc1ccc(-c2ccc(C[C@@H]3NC(=O)[C@H](Cc4ccc(-c5ccc(C(=O)O)cc5)cc4)NC(=O)[C@H](CN4CCOCC4)NC(=O)CSC[C@@H](C(=O)NCC(N)=O)NC(=O)[C@H](CC(C)C)NC(=O)[C@H](Cc4ccc(O)cc4)NC(=O)[C@H](C4CCCCC4)NC(=O)[C@@H]4CCCN4C(=O)[C@H](C(C)C)NC(=O)[C@@H](CCCNC(=N)N)NC(=O)[C@H](CC(=O)O)NC(=O)[C@@H]4CCCN4C(=O)CN(C)C3=O)cc2)cc1 [Example 237] ({CH2CO}-[Ala(morpholin-4-yl)][Bip(4'-COOH)][Bip(4'-NHAc)][Sar]PD[dR]VP[Chg]YLCG-NH2; thioether N-13)
  IC50: 50 to 200 nM

## CC[C@H](C)[C@@H]1NC(=O)[C@@H](CCCNC(=N)N)NC(=O)[C@H](CC(=O)O)NC(=O)[C@H](Cc2cnc[nH]2)NC(=O)CN(C)C(=O)[C@H](Cc2ccc(-c3ccc(NC(C)=O)cc3)cc2)NC(=O)[C@H](Cc2ccc(-c3ccccc3)cc2)NC(=O)[C@H](CN2CCOCC2)NC(=O)CSC[C@@H](C(=O)NCC(N)=O)NC(=O)[C@H](CC(C)C)NC(=O)[C@H](Cc2cnc[nH]2)NC(=O)[C@H](C(C)C)NC(=O)[C@@H]2CCCN2C1=O [Example 238] ({CH2CO}-[Ala(morpholin-4-yl)][Bip][Bip(4'-NHAc)][Sar]HD[dR]IPVHLCG-NH2; thioether N-13)
  IC50: < 50 nM

## CC(=O)Nc1ccc(-c2ccc(C[C@@H]3NC(=O)[C@H](Cc4ccc(-c5ccccc5)cc4)NC(=O)[C@H](CC4CCCCC4)NC(=O)CSC[C@@H](C(=O)NCC(N)=O)NC(=O)[C@H](CC(C)C)NC(=O)[C@H](Cc4ccc(O)cc4)NC(=O)[C@H](C(C)C)NC(=O)[C@@H]4CCCN4C(=O)[C@H]([C@H](C)N)NC(=O)[C@@H](CCCNC(=N)N)NC(=O)[C@H](CC(=O)O)NC(=O)[C@@H]4CCCN4C(=O)CN(C)C3=O)cc2)cc1 [Example 239] ({CH2CO}-[Cha][Bip][Bip(4'-NHAc)][Sar]PD[dR][Abu(3S-NH2)]PVYLCG-NH2; thioether N-13)
  IC50: 50 to 200 nM

## CC(=O)Nc1ccc(-c2ccc(C[C@@H]3NC(=O)[C@H](Cc4ccc(-c5ccccc5)cc4)NC(=O)[C@H](CC4CCCCC4)NC(=O)CSC[C@@H](C(=O)NCC(N)=O)NC(=O)[C@H](CC(C)C)NC(=O)[C@H](Cc4cccc(C(N)=O)c4)NC(=O)[C@H](C(C)C)NC(=O)[C@@H]4CCCN4C(=O)[C@H](C(C)C)NC(=O)[C@@H](CCCNC(=N)N)NC(=O)[C@H](CC(=O)O)NC(=O)[C@@H]4CCCN4C(=O)CN(C)C3=O)cc2)cc1 [Example 240] ({CH2CO}-[Cha][Bip][Bip(4'-NHAc)][Sar]PD[dR]VPV[Phe(3-CONH2)]LCG-NH2; thioether N-13)
  IC50: 50 to 200 nM

## CC(=O)Nc1ccc(-c2ccc(C[C@@H]3NC(=O)[C@H](Cc4ccc(-c5ccc(C(=O)O)cc5)cc4)NC(=O)[C@H](CC4CCCCC4)NC(=O)CSC[C@@H](C(=O)N[C@@H](CCN)C(N)=O)NC(=O)[C@H](CC(C)C)NC(=O)[C@H](Cc4ccc(O)cc4)NC(=O)[C@H](C(C)C)NC(=O)[C@@H]4CCCN4C(=O)[C@H](C(C)C)NC(=O)[C@@H](CCCNC(=N)N)NC(=O)[C@H](CC(=O)O)NC(=O)[C@@H]4CCCN4C(=O)CN(C)C3=O)cc2)cc1 [Example 243] ({CH2CO}-[Cha][Bip(4'-COOH)][Bip(4'-NHAc)][Sar]PD[dR]VPVYLC[Dab]-NH2; thioether N-13)
  IC50: 50 to 200 nM

## CC(=O)Nc1ccc(-c2ccc(C[C@@H]3NC(=O)[C@H](Cc4ccc(-c5ccc(C(=O)O)cc5)cc4)NC(=O)[C@H](CC4CCCCC4)NC(=O)CSC[C@@H](C(=O)N[C@@H](CCC(N)=O)C(N)=O)NC(=O)[C@H](CC(C)C)NC(=O)[C@H](Cc4ccc(O)cc4)NC(=O)[C@H](C(C)C)NC(=O)[C@@H]4CCCN4C(=O)[C@H](C(C)C)NC(=O)[C@@H](CCCNC(=N)N)NC(=O)[C@H](CC(=O)O)NC(=O)[C@@H]4CCCN4C(=O)CN(C)C3=O)cc2)cc1 [Example 244] ({CH2CO}-[Cha][Bip(4'-COOH)][Bip(4'-NHAc)][Sar]PD[dR]VPVYLCQ-NH2; thioether N-13)
  IC50: 200 to 2000 nM

## CC(=O)Nc1ccc(-c2ccc(C[C@@H]3NC(=O)[C@H](Cc4ccc(-c5ccc(C(=O)O)cc5)cc4)NC(=O)[C@H](CC4CCCCC4)NC(=O)CSC[C@@H](C(=O)NCC(N)=O)NC(=O)[C@H](CC(C)C)NC(=O)[C@H](Cc4cccs4)NC(=O)[C@H](C(C)C)NC(=O)[C@@H]4CCCN4C(=O)[C@H](C(C)C)NC(=O)[C@@H](CCCNC(=N)N)NC(=O)[C@H](CC(=O)O)NC(=O)[C@@H]4CCCN4C(=O)CN(C)C3=O)cc2)cc1 [Example 245] ({CH2CO}-[Cha][Bip(4'-COOH)][Bip(4'-NHAc)][Sar]PD[dR]VPV[2Thi]LCG-NH2; thioether N-13)
  IC50: 200 to 2000 nM

## CC(=O)Nc1ccc(-c2ccc(C[C@@H]3NC(=O)[C@H](Cc4ccc(-c5ccc(C(=O)O)cc5)cc4)NC(=O)[C@H](CC4CCCCC4)NC(=O)CSC[C@@H](C(=O)NCC(N)=O)NC(=O)[C@H](CC(C)C)NC(=O)[C@H](Cc4ccco4)NC(=O)[C@H](C(C)C)NC(=O)[C@@H]4CCCN4C(=O)[C@H](C(C)C)NC(=O)[C@@H](CCCNC(=N)N)NC(=O)[C@H](CC(=O)O)NC(=O)[C@@H]4CCCN4C(=O)CN(C)C3=O)cc2)cc1 [Example 246] ({CH2CO}-[Cha][Bip(4'-COOH)][Bip(4'-NHAc)][Sar]PD[dR]VPV[Ala(2-furyl)]LCG-NH2; thioether N-13)
  IC50: 50 to 200 nM

## CC(=O)Nc1ccc(-c2ccc(C[C@@H]3NC(=O)[C@H](Cc4ccc(-c5ccc(C(=O)O)cc5)cc4)NC(=O)[C@H](CC4CCCCC4)NC(=O)CSC[C@@H](C(=O)NCC(N)=O)NC(=O)[C@H](CC(C)C)NC(=O)[C@H](Cc4ccc(O)cc4)NC(=O)[C@H](C(C)C)NC(=O)[C@@H]4CCCN4C(=O)[C@H](CC(N)=O)NC(=O)[C@@H](CCCNC(=N)N)NC(=O)[C@H](CC(=O)O)NC(=O)[C@@H]4CCCN4C(=O)CN(C)C3=O)cc2)cc1 [Example 247] ({CH2CO}-[Cha][Bip(4'-COOH)][Bip(4'-NHAc)][Sar]PD[dR]NPVYLCG-NH2; thioether N-13)
  IC50: 50 to 200 nM

## CC(=O)Nc1ccc(-c2ccc(C[C@@H]3NC(=O)[C@H](Cc4ccc(-c5ccc(C(=O)O)cc5)cc4)NC(=O)[C@H](CC4CCCCC4)NC(=O)CSC[C@@H](C(=O)NCC(N)=O)NC(=O)[C@H](CC(C)C)NC(=O)[C@H](Cc4cnc[nH]4)NC(=O)[C@H](C(C)C)NC(=O)[C@@H]4CCCN4C(=O)[C@H](CC(N)=O)NC(=O)[C@@H](CCCNC(=N)N)NC(=O)[C@H](CC(=O)O)NC(=O)[C@H](Cc4ccc(O)cc4)NC(=O)CN(C)C3=O)cc2)cc1 [Example 248] ({CH2CO}-[Cha][Bip(4'-COOH)][Bip(4'-NHAc)][Sar]YD[dR]NPVHLCG-NH2; thioether N-13)
  IC50: 50 to 200 nM

## CC(=O)Nc1ccc(-c2ccc(C[C@@H]3NC(=O)[C@H](Cc4ccc(-c5ccccc5)cc4)NC(=O)[C@H](CC4CCCCC4)NC(=O)CSC[C@@H](C(=O)N[C@@H](CCC(=O)O)C(N)=O)NC(=O)[C@H](CC(C)C)NC(=O)[C@H](Cc4cnc[nH]4)NC(=O)[C@H](C(C)C)NC(=O)[C@@H]4CCCN4C(=O)[C@H](C(C)C)NC(=O)[C@@H](CCCNC(=N)N)NC(=O)[C@H](CC(=O)O)NC(=O)[C@H](Cc4ccc(O)cc4)NC(=O)CN(C)C3=O)cc2)cc1 [Example 249] ({CH2CO}-[Cha][Bip][Bip(4'-NHAc)][Sar]YD[dR]VPVHLCE-NH2; thioether N-13)
  IC50: 50 to 200 nM

## CC(=O)Nc1ccc(-c2ccc(C[C@@H]3NC(=O)[C@H](Cc4ccc(-c5ccc(C(=O)O)cc5)cc4)NC(=O)[C@H](CC4CCCCC4)NC(=O)CSC[C@@H](C(=O)NCC(N)=O)NC(=O)[C@H](CC(C)C)NC(=O)[C@H](Cc4cccc(C(N)=O)c4)NC(=O)[C@H](C(C)C)NC(=O)[C@@H]4CCCN4C(=O)[C@H](C(C)C)NC(=O)[C@@H](CCCNC(=N)N)NC(=O)[C@H](CC(=O)O)NC(=O)[C@H](Cc4ccccn4)NC(=O)CN(C)C3=O)cc2)cc1 [Example 251] ({CH2CO}-[Cha][Bip(4'-COOH)][Bip(4'-NHAc)][Sar][2Pal]D[dR]VPV[Phe(3-CONH2)]LCG-NH2; thioether N-13)
  IC50: < 50 nM

## CC(=O)Nc1ccc(-c2ccc(C[C@@H]3NC(=O)[C@H](Cc4ccc(-c5ccc(C(=O)O)cc5)cc4)NC(=O)[C@H](CC4CCCCC4)NC(=O)CSC[C@@H](C(=O)NCC(N)=O)NC(=O)[C@H](CC(C)C)NC(=O)[C@H](Cc4cccc(C(N)=O)c4)NC(=O)[C@H](C(C)C)NC(=O)[C@@H]4CCCN4C(=O)[C@H](C(C)C)NC(=O)[C@@H](CCCNC(=N)N)NC(=O)[C@H](CC(=O)O)NC(=O)[C@H](Cc4ccc(O)cc4)NC(=O)CN(C)C3=O)cc2)cc1 [Example 252] ({CH2CO}-[Cha][Bip(4'-COOH)][Bip(4'-NHAc)][Sar]YD[dR]VPV[Phe(3-CONH2)]LCG-NH2; thioether N-13)
  IC50: < 50 nM

## CC(=O)Nc1ccc(-c2ccc(C[C@@H]3NC(=O)[C@H](Cc4ccc(-c5ccccc5)cc4)NC(=O)[C@H](CC4CCCCC4)NC(=O)CSC[C@@H](C(=O)NCC(N)=O)NC(=O)[C@H](CC(C)C)NC(=O)[C@H](Cc4cnc[nH]4)NC(=O)[C@H](C(C)C)NC(=O)[C@@H]4CCCN4C(=O)[C@H](CC(N)=O)NC(=O)[C@@H](CCCNC(=N)N)NC(=O)[C@H](CC(=O)O)NC(=O)[C@@H]4CCCN4C(=O)CN(C)C3=O)cc2)cc1 [Example 253] ({CH2CO}-[Cha][Bip][Bip(4'-NHAc)][Sar]PD[dR]NPVHLCG-NH2; thioether N-13)
  IC50: 50 to 200 nM

## CC(=O)Nc1ccc(-c2ccc(C[C@@H]3NC(=O)[C@H](Cc4ccc(-c5ccc(C(=O)O)cc5)cc4)NC(=O)[C@H](CC4CCCCC4)NC(=O)CSC[C@@H](C(=O)NCC(N)=O)NC(=O)[C@H](CC(C)C)NC(=O)[C@H](Cc4cccc(CN)c4)NC(=O)[C@H](C(C)C)NC(=O)[C@@H]4CCCN4C(=O)[C@H](C(C)C)NC(=O)[C@@H](CCCNC(=N)N)NC(=O)[C@H](CC(=O)O)NC(=O)[C@@H]4CCCN4C(=O)CN(C)C3=O)cc2)cc1 [Example 254] ({CH2CO}-[Cha][Bip(4'-COOH)][Bip(4'-NHAc)][Sar]PD[dR]VPV[Phe(3-CH2NH2)]LCG-NH2; thioether N-13)
  IC50: 200 to 2000 nM

## CC(=O)Nc1ccc(-c2ccc(C[C@@H]3NC(=O)[C@H](Cc4ccc(-c5ccc(C(=O)O)cc5)cc4)NC(=O)[C@H](CC4CCCCC4)NC(=O)CSC[C@@H](C(=O)NCC(N)=O)NC(=O)[C@H](CC(C)C)NC(=O)[C@H](Cc4ccccc4C)NC(=O)[C@H](C(C)C)NC(=O)[C@@H]4CCCN4C(=O)[C@H](C(C)C)NC(=O)[C@@H](CCCNC(=N)N)NC(=O)[C@H](CC(=O)O)NC(=O)[C@@H]4CCCN4C(=O)CN(C)C3=O)cc2)cc1 [Example 255] ({CH2CO}-[Cha][Bip(4'-COOH)][Bip(4'-NHAc)][Sar]PD[dR]VPV[Phe(2-Me)]LCG-NH2; thioether N-13)
  IC50: 50 to 200 nM
